Where a name gives a salt, the structure may show the parent alone. Read-outs that look alike come from different tables or passages of the source.

One series relates to rat stomach. Kind of series: Gastrointestinal irritation evaluation in rats (Annamalai-Ma gastrointestinal irritation rat model). In kind it is in vivo. Conditions: average stomach score (0-5 scale, Table 1) from at least 5 rats; oral, once per day for 4 consecutive days. As for the experimental part: In order to assess gastrointestinal irritation using this model, rats are treated orally with either vehicle or the MHF prodrug to be tested (n=10 per group) at 180 mg-equivalents MHF/kg of animal body weight, dosed once per day for 4 days, followed by necropsy and gastrointestinal evaluation at 24 hrs after the final dose. Evans Blue dye is injected IV (tail vein) to visually emphasize any lesions in the gastrointestinal tissue.
Rats were dosed once per day for 4 consecutive days with 180 mg-equivalents MHF/kg body weight per day of a number of MHF prodrugs. The animals were fasted overnight prior to necropsy. On Day 5, to help visualize lesions, 1 mL of 1% Evan's blue in saline was injected into the tail vein 30 minutes prior to euthanasia. All animals were euthanized by inhalation of carbon dioxide. A partial necropsy, limited to the abdominal cavities, was performed. The stomach and small intestine were removed. Residual material was washed away, using an irrigation syringe filled with saline. The stomach was cut along the larger curvature and washed gently with normal saline, and was examined for any lesions. The stomachs were scored in accordance with the scoring system outlined in Table 1. The stomach scores from at least 5 rats were used to calculate an average gastrointestinal irritation score, which scores are reported in Table 2.

Series [1] has as its system GST activity in the forestomach tissue of rats. Kind of series: Glutathione S transferase (GST) activity of the cytosolic extracts of rat forestomach after oral dosing. In kind it is in vivo. Conditions: rat forestomach cytosol; oral gavage 180 mg-equivalents of MMF/kg once per day for 14 days; relative to DMF. How it is done:
wherein SARprodrug is the ratio of (i) the GST activity in the forestomach tissue of rats treated with the MMF prodrug (GSTAprodrug) to (ii) the GST activity in the forestomach tissue of rats treated with a non-irritating control solution comprised of 0.5 wt % methylcellulose and 0.1 wt % Tween 80 in 10 mM sodium acetate buffer, pH 4.5 (GSTAcontrol); and SARDMF is the ratio of (i) the GST activity in the forestomach tissue of rats treated with DMF (GSTADMF) to (ii) the GST activity in the forestomach tissue of rats treated with a non-irritating control solution comprised of 0.5 wt % methylcellulose and 0.1 wt % Tween 80 in 10 mM sodium acetate buffer, pH 4.5 (GSTAcontrol). The SARprodrug is proportional to the amount of GST isozymes induced by the MMF prodrug treatment while the SARDMF is proportional to the amount of GST isozymes induced by DMF prodrug treatment. A detailed description of how to determine the GSTArel is provided in Example 1 herein. […]
Total cytosolic GST activity is determined by measuring the conjugation of 1-chloro-2,4-dinitrobenzene (CDNB) with reduced glutathione. […] The formation of the conjugate is monitored spectrophotometrically by measuring the rate of increase in absorbance at 340 nm over a period of 3 minutes. The rate of increase is measured in μmole/min production of GST-CDNB and is directly proportional to the GST activity in the sample. […]

The test system of another series is C57BL/6 mice. Kind of series: MOG35-55 mouse EAE model of multiple sclerosis. The settings on record: oral 90 mg-eq MHF/kg twice daily, Days 3 to 29. In kind it is in vivo. How it is done:
(§1) C57BL/6 mice (6 females) were injected subcutaneously with MOG35-55 peptide in CFA with Mycobacterium tuberculosis. Pertussis toxin ([…]) was injected IV on Day 0 and Day 2 post-immunization. Animals received oral XP23829 or DMF (90 mg-eq MHF/kg twice daily) or vehicle on Days 3 to 29. Daily EAE clinical disease scores (5 point scale) were recorded. End of study MHF blood levels were determined by LC/MS/MS.

The subject of a further series is Balb/c mice. Kind of series: Imiquimod (IMQ) mouse model of psoriasis. In kind it is in vivo. Conditions: Day -5 to Day 5. An excerpt: Balb/c mice (10 males/group) received daily topical IMQ (5% cream) on shaved back and right ear for 5 days. […] Erythema score was the primary outcome measure.
A short description of series [2]: MHF and intact prodrug blood levels in the mouse efficacy studies (LC/MS/MS). It is filed as in vivo. Conditions: oral dosing. As for the experimental part:
as §1

Series [3] is described as follows: Toxicokinetics at steady state in rats. In kind it is in vivo, rat. As for the experimental part:
(§2) Gastrointestinal toxicity was assessed by gross necropsy and histopathology. Toxicokinetics were assessed at steady state in parallel cohorts.

Series [4] is described as follows: Toxicokinetics at steady state in monkeys. In kind it is in vivo, monkey. As for the experimental part:
as §2

In series [5] the test system is CD rats. Kind of series: 4-week GLP toxicity study in rats, gastrointestinal toxicity by gross necropsy and histopathology. The settings on record: 500 mg/kg/day for 4 weeks.
Description: (§3) (N,N-diethylcarbamoyl)methyl methyl (2E)but-2-ene-1,4-dioate was administered to CD rats (10/sex/dose) at 0 (vehicle), 150, 250, or 500 mg/kg/day and monkeys (3/sex/group) at 0 (vehicle), 25, 75, or 200 mg/kg/day for 4 weeks in GLP toxicity studies. In parallel studies, DMF was administered at doses intended to deliver similar MHF exposures: in rats (10/sex/dose) at 90, 150, and 300 mg/kg/day and monkeys (3/sex/group) at 0 (vehicle), 40, 90, or 250 mg/kg/day for 4 weeks. Gastrointestinal toxicity was assessed by gross necropsy and histopathology.
The test system of series [6] is CD rats. Conditions: rat, in vivo, 300 mg/kg/day.
Description: as §3
In the next series the test system is monkeys. The series is described as follows: 4-week GLP toxicity study in monkeys, gastrointestinal toxicity by gross necropsy and histopathology.

On to `COC(=O)/C=C/C(=O)OCC(=O)N(C)C1CC1` [(N-cyclopropyl-N-methylcarbamoyl)methyl methyl 2(E)but-2-ene-1,4-dioate], for which the melting point stood at 93.6 °C. The “GI Irritation Score (180 mg-eq of MHF/kg)” value (shortened to “GI Irritation Score”) with rat stomach stood at 2.6.

`CCN(CC)C(=O)COC(=O)/C=C/C(=O)OC` [(N,N-Diethylcarbamoyl)methyl methyl (2E)but-2-ene-1,4-dioate]: the “relative GST enzyme activity (GSTArel)” value in series [1] was “less than 80%”. Moreover, the “GI Irritation Score” value with rat stomach stood at 1.4. In the series with C57BL/6 mice, the “reduction in EAE clinical score (Day 29 and overall AUC) compared to vehicle” value was “significant reduction”. Also, the “effect versus control in IMQ model (erythema score primary outcome)” value in the series on Balb/c mice (oral 90 mg-eq/kg twice daily) is on record as “significant”. The “intact prodrug in the systemic blood” value in series [2] is reported as “not detected”. In [3], the “conversion to MHF after absorption” value is given as “converted rapidly to MHF” and the “prodrug in the systemic circulation” value is “not detected”. Moreover, the “MHF exposure compared with DMF at 300 mg/kg/day” value in [3] (500 mg/kg/day) is recorded as “identical”. Also, in series [4], the “conversion to MHF after absorption” value is listed as “converted rapidly to MHF” and the “prodrug in the systemic circulation” value is “not detected”. Also, in the series with CD rats [5], the glandular stomach findings entry is listed as “no adverse effects on glandular stomach”.

Regarding `COC(=O)/C=C/C(=O)OC` [Dimethyl Fumarate], the “GI Irritation Score” value in the series on rat stomach stood at 4.6. Moreover, the “reduction in EAE clinical score (Day 29 and overall AUC) compared to vehicle” value with C57BL/6 mice is recorded as “not statistically significant”. Besides, the “effect versus control in IMQ model (erythema score primary outcome)” value with Balb/c mice (oral 45 or 90 mg-eq MMF/kg twice daily (either dose)) is recorded as “not significant”. The glandular stomach findings result with CD rats [6] is “ulceration, necrosis and loss of mucosa of glandular stomach”. For the same molecule, the “gastric mucosal hyperplasia (histopathology) compared to (N,N-diethylcarbamoyl)methyl methyl (2E)but-2-ene-1,4-dioate” value with monkeys (monkeys, 4 weeks) is “greater gastric mucosal hyperplasia”. Besides, in the series with monkeys (monkeys, 40, 90 or 250 mg/kg/day), the “gastrointestinal irritation after 4 weeks of dosing” value is given as “dose dependent gastrointestinal irritation”. The mortality entry in the series with monkeys (monkeys, high dose, 4 weeks) is recorded as “One high dose DMF monkey died from gastric ulceration”.

On to `COC(=O)/C=C/C(=O)OCCCN1CCOCC1` [Methyl 3-morpholin-4-ylpropyl (2E)but-2-ene-1,4-dioate], for which the “GI Irritation Score” value with rat stomach is given as 0.0.

For `COC(=O)/C=C/C(=O)OCC(=O)N1CCCC1` [Methyl 2-oxo-2-pyrrolidinylethyl 2(E)but-2-ene-1,4-dioate], the melting point worked out at 102.1 °C. In the series with rat stomach, the “GI Irritation Score” value stood at 3.0.

Regarding `COC(=O)/C=C/C(=O)OCC(=O)N(C)C` [(N,N-Dimethylcarbamoyl)methyl methyl (2E)but-2-ene-1,4-dioate], the “GI Irritation Score” value with rat stomach came to 2.4.

The molecule `CCN(C(=O)COC(=O)/C=C/C(=O)OC)C1CC1` [(N-cyclopropyl-N-ethylcarbamoyl)methyl methyl 2(E)but-2-ene-1,4-dioate] gave a melting point of 92.1 °C. Further, in the series on rat stomach, the “GI Irritation Score” value stood at 1.0.

`COC(=O)/C=C/C(=O)OCCCCCCN1CCOCC1` [Methyl 6-morpholin-4-ylhexyl (2E)but-2-ene-1,4-dioate]: the “GI Irritation Score” value in the series with rat stomach stood at 0.0.

`COC(=O)/C=C/C(=O)OCCCCN1CCOCC1` [Methyl 4-morpholin-4-ylbutyl (2E)but-2-ene-1,4-dioate]: the “GI Irritation Score” value in the series on rat stomach is recorded as 0.6.

For `COC(=O)/C=C/C(=O)OCCN1CCOCC1` [Methyl 2-morpholin-4-ylethyl (2E)but-2-ene-1,4-dioate], the “GI Irritation Score” value with rat stomach came out at 0.0.

As to `COC(=O)/C=C/C(=O)OCCCCCN1CCOCC1` [Methyl 5-morpholin-4-ylpentyl (2E)but-2-ene-1,4-dioate], the “GI Irritation Score” value in the series on rat stomach is reported as 0.0.

`COC(=O)/C=C/C(=O)OCC(=O)N1CCOCC1` [Methyl 2-morpholin-4-yl-2-oxoethyl (2E)but-2-ene-1,4-dioate] showed a melting point of 124 to 126 °C. Further, the “GI Irritation Score” value in the series with rat stomach was 2.9.

For orientation: melting point means the temperature, or range, at which the solid turns liquid.
